From US20220257631A1, “THERAPEUTIC RNA FOR OVARIAN CANCER” (BIONTECH SE, priority 2019, published 2022)

How the values were obtained:
[1] = Respiratory safety, plethysmography (LPT No. 30283); conditions: positive control 30 mg/kg b.w.
[2] = DOTMA biodistribution, LC/MS
antigen-specific T cells = experiment: IFN-γ ELISPOT of splenocytes of i.v. vaccinated A2/DR1 mice; type: in vivo; conditions: 30 μg RNA(LIP) i.v., four to five vaccinations
human DCs = experiment: IFN-γ secretion of antigen-specific CD8+ T cells co-incubated with RBL005.2-electroporated DCs (Bio-plex); type: cell-based
Protocol: Antigen-specific CD8^+ T cells were co-incubated with DCs transfected with 0.25, 1, 4, or 16 μg […] different amounts of RBL005.2. As negative controls only effectors, or DCs transfected with irrelevant antigen coding RNA were used. Columns indicate means of two donors and biological duplicates.
In addition, we exemplarily tested the ability of the WAREHOUSE RNA drug product RBL005.2 to generate surface-expressed MHC-class I epitopes after electroporation of the RNAs into human DCs. This was determined by co-incubation of the transfected DCs for 24 h with isolated human CD8^+ T cells equipped with the α- and β-chain of a T-cell receptor (TCR) specific for the HLA-A*0201-restricted epitope […] (CLDN691.99). Activation of the antigen-specific cells was analyzed by IFN-γ Bio-plex bead assay (Bio-Rad Laboratories) of the cell culture supernatants. To consider donor variability each of the test items was analyzed using two different donors. RNA of ATM quality was used. The experiments were carried out using up to 16 μg of the RNAs to electroporate the DCs (Study Report No: STR_21591_003).

[3] = system: CD8+ T cells of healthy donors; experiment: In vitro priming of CD8+ T cells with RBL005.2-transfected autologous mDCs, MHC-dextramer staining; type: cell-based, human; conditions: three rounds of weekly stimulation
K562-A2 cells = experiment: TCR specificity test, IFN-γ ELISPOT with K562-A2 cells; type: cell-based, human

Molecule: CC(C[N+](C)(C)C)OC(N)=O.[Cl-] (stereo not drawn) [Carbamyl-β-methylcholine chloride]
- Pulmonary parameters [1]: expected alterations

Molecule: CCCCCCCC/C=C\CCCCCCCCOCC(C[N+](C)(C)C)OCCCCCCCC/C=C\CCCCCCCC (centres unmarked) [DOTMA, 1,2-di-O-octadecenyl-3-trimethylammonium propane]
- Organ with highest DOTMA findings ([2]; 60 μg RNA, one or two injections, 24 h): highest DOTMA findings were in the spleen
- DOTMA distribution ([2]; single RNA(LIP), 26 μg DOTMA, up to 28 days): predominantly found in spleen and liver
- Factor by which DOTMA is lower in other organs/tissues than spleen and liver ([2]; single dose): 10-50

Molecule: RBL008.1: beta-S-ARCA(D1)-hAg-Kozak-sec-GS-p53-GS-MITD-2hBgUTR-A30L70 mRNA, encodes human p53 (SEQ ID NO: 7)
- Antigen-specific T-cell responses (IFN-γ ELISPOT) (antigen-specific T cells): induced antigen-specific T-cell responses in vivo in mice expressing human HLA-molecules.

Molecule: RBL012.1: beta-S-ARCA(D1)-hAg-Kozak-sec-GS-PRAME-GS-MITD-2hBgUTR-A30L70 mRNA, encodes human PRAME (SEQ ID NO: 11)
- Antigen-specific T-cell responses (IFN-γ ELISPOT) (antigen-specific T cells): induced antigen-specific T-cell responses in vivo in mice expressing human HLA-molecules.

B1: RBL005.2: beta-S-ARCA(D1)-hAg-Kozak-CLDN6-2hBgUTR-A30L70 mRNA, encodes human Claudin 6 (SEQ ID NO: 3) (nucleic acid)
chain: GGGCGAACUAGUAUUCUUCUGGUCCCCACAGACUCAGAGAGAACCCGCCACCAUGGCCUCUGCCGGAAUGCAGAUCCUGGGCGUGGUGCUGACCCUGCUGGGCUGGGUGAAUGGCCUGGUGAGCUGUGCCCUGCCCAUGUGGAAGGUGACAGCCUUCAUUGGCAACAGCAUUGUGGUGGCCCAGGUGGUGUGGGAGGGCCUGUGGAUGAGCUGUGUGGUGCAGAGCACAGGCCAGAUGCAGUGCAAGGUGUAUGACAGCCUGCUGGCCCUGCCUCAGGACCUCCAGGCCGCCAGAGCCCUGUGUGUGAUUGCCCUGCUGGUGGCCCUGUUUGGCCUGCUGGUGUACCUGGCUGGAGCCAAGUGCACCACCUGUGUGGAGGAGAAGGACAGCAAGGCCAGACUGGUGCUGACCUCUGGCAUUGUGUUUGUGAUCUCUGGCGUGCUGACCCUGAUCCCUGUGUGCUGGACAGCCCAUGCCAUCAUCAGAGACUUCUACAACCCUCUGGUGGCCGAGGCCCAGAAAAGAGAGCUGGGAGCCAGCCUGUACCUGGGCUGGGCCGCCUCUGGCCUUCUUCUGCUGGGAGGAGGACUGCUGUGCUGCACCUGCCCCUCUGGCGGCAGCCAGGGCCCCAGCCACUACAUGGCCAGAUACAGCACCUCUGCCCCUGCCAUCAGCAGAGGCCCUUCUGAGUACCCCACCAAGAACUAUGUGUGAGGAGGAUCCCCUCGAGAGCUCGCUUUCUUGCUGUCCAAUUUCUAUUAAAGGUUCCUUUGUUCCCUAAGUCCAACUACUAAACUGGGGGAUAUUAUGAAGGGCCUUGAGCAUCUGGAUUCUGCCUAAUAAAAAACAUUUAUUUUCAUUGCUGCGUCGAGAGCUCGCUUUCUUGCUGUCCAAUUUCUAUUAAAGGUUCCUUUGUUCCCUAAGUCCAACUACUAAACUGGGGGAUAUUAUGAAGGGCCUUGAGCAUCUGGAUUCUGCCUAAUAAAAAACAUUUAUUUUCAUUGCUGCGUCGAGACCUGGUCCAGAGUCGCUAGCAAAAAAAAAAAAAAAAAAAAAAAAAAAAAAGCAUAUGACUAAAAAAAAAAAAAAAAAAAAAAAAAAAAAAAAAAAAAAAAAAAAAAAAAAAAAAAAAAAAAAAAAAAAAA
modifications: beta-S-ARCA cap, poly(A); CLDN6 RNA
- Dose dependency of IFN-γ production (human DCs; 0.25, 1, 4, 16 μg RNA): clear dose dependency
- IFN-γ production by antigen-specific CD8+ T cells (human DCs; up to 16 μg RNA electroporated, 24 h, two donors): able to produce IFN-γ
- CD8+ T cells binding HLA-A*02/RBL005.2 91-99 dextramer [3]: 0.462%
- Recognition of RBL005.2-transfected K562-A2 cells by isolated TCR (K562-A2 cells): specific recognition
- Antigen-specific T-cell responses (IFN-γ ELISPOT) (antigen-specific T cells): induced antigen-specific T-cell responses in vivo in mice expressing human HLA-molecules.
